Results from patent US20230116972A1, “CD38 MODULATORS AND METHODS OF USE THEREOF” (Cytokinetics, Inc., priority 2021, published 2023).
Like-named read-outs stand apart in the source and are kept apart here.

How the values were obtained:
[1] = target: T1, CYP3A4 (Homo sapiens, UniProt P08684); experiment: time dependent inhibition of CYP450 in pooled human microsomes; type: in vitro ADME
T1 construct: from tissue; host or cells: human liver microsomes (pooled in the time-dependent assay)
Experimental: (§1) Time dependent inhibition: An assessment of the time-dependent Inhibitory potential of test compounds against the principal human cytochrome P450 isozymes was carried out using standard methods (Grimm et al, “The Conduct of in Vitro Studies to Address Time-Dependent Inhibition of Drug-Metabolizing Enzymes: A Perspective of the Pharmaceutical Research and Manufacturers of America”, Drug Metabolism and Disposition, 37 (7): 1355, 2009). […] Each compound was pre-incubated at 37° C. plus and minus NADPH for 30 min, and with 0 min pre-incubation for assessment of potential time dependent inhibition. LC-MS/MS was used to quantify metabolite formation. […] Note that, in Tables 8 and 9, the “Compound No” corresponds to the compound numbers in Table 1.

[2] = target: T2, CYP2C9 (Homo sapiens, UniProt P11712); experiment: as above; type: in vitro ADME
T2 construct: from tissue; host or cells: human liver microsomes (pooled in the time-dependent assay)
Experimental: as §1

[3] = target: T3, CYP2B6 (Homo sapiens, UniProt P20813); experiment: as above; type: in vitro ADME
T3 construct: from tissue; host or cells: human liver microsomes (pooled in the time-dependent assay)
T3 sequence (P20813 1-491): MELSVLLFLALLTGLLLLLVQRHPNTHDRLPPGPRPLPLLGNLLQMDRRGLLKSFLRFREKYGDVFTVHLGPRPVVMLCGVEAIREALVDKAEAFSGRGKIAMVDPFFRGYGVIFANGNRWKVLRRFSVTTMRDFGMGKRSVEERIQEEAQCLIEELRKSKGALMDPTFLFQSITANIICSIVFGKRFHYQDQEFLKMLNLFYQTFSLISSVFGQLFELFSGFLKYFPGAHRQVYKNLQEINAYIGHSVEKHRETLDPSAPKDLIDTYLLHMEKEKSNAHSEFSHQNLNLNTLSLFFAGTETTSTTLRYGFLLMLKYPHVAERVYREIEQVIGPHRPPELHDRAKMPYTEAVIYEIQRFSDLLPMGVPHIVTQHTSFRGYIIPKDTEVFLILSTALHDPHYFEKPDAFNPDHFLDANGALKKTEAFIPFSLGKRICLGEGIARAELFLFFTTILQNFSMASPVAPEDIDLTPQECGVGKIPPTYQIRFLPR
Experimental: as §1

[4] = target: T4, CYP1A2 (Homo sapiens, UniProt P05177); experiment: as above; type: in vitro ADME
T4 construct: from tissue; host or cells: human liver microsomes (pooled in the time-dependent assay)
T4 sequence (P05177 1-516): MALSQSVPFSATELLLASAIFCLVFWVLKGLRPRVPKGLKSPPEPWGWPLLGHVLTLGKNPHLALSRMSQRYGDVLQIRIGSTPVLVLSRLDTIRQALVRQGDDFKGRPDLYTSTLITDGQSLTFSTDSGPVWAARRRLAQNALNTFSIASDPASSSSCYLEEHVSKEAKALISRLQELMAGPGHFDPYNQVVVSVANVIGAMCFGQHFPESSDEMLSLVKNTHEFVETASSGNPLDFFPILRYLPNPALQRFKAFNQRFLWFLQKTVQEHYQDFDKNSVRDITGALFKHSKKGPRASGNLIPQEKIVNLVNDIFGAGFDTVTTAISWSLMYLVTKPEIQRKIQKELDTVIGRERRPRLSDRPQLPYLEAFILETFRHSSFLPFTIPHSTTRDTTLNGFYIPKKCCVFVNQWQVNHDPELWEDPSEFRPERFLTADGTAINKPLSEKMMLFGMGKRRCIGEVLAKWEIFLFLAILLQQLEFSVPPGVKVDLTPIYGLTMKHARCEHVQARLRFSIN
Experimental: as §1

[5] = target: T5, CYP2C19 (Homo sapiens, UniProt P33261); experiment: as above; type: in vitro ADME
T5 construct: from tissue; host or cells: human liver microsomes (pooled in the time-dependent assay)
Experimental: as §1

[6] = target: T6, CYP2D6 (Homo sapiens, UniProt P10635); experiment: as above; type: in vitro ADME
T6 construct: from tissue; host or cells: human liver microsomes (pooled in the time-dependent assay)
Experimental: as §1

[7] = tested on: nicotinamide levels in mouse tissues; experiment: tissue levels of nicotinamide in aged C57BL/6 mice after oral administration; type: in vivo; conditions: 100 mg/kg BID oral, 72-week-old male C57BL/6J mice, 4 h after the 3rd administration, vs vehicle, FIG. 1
Experimental: 0.1% Tween 80/0.5% HPMC or compound 148 prepared with 0.1% Tween 80/0.5% HPMC was orally administered at 100 mg/kg BID to 72-week-old male C57BL/6J mice. 4 h after the 3rd administration, each mouse was euthanized, and tissues collected.
Whole blood was collected and placed into pre-chilled K2EDTA microtainer tube, rotated 3-4 times to ensure anticoagulant mixing. An aliquot from the whole blood collection was added to 10 volumes of 0.5M PCA (perchloric acid), inverted 3-4 times to mix well, and then frozen on dry ice. While under isoflurane after cardiac puncture for blood collection, the following tissues were harvested in this order: heart, liver lobe, then by brain. All tissues were processed using pre-chilled freeze clamp. The frozen tissues were placed in pre-frozen labeled 2 mL Eppendorf tubes. The tissues were stored at −80° C. until processing. Upon processing, each tissue was cryomilled in the frozen state to form a powder. Frozen powdered tissue was weighed into pre-frozen tubes. Approximately 10 volumes of 0.5M PCA per weight of tissue were added to the tube followed by freezing until analysis. Upon analysis, blood and tissue samples were thawed on ice, followed by homogenization via TissueLyzer. Samples were centrifuged, the supernatant was collected and filtered, and the nicotinamide concentration in the supernatant of sample was measured using LC/MS.

[8] = between 30 min pre-incubation plus NADPH and 0 min
[9] = pre-incubation 30 min (NO NADPH)

T2 sequence (P11712 whole entry): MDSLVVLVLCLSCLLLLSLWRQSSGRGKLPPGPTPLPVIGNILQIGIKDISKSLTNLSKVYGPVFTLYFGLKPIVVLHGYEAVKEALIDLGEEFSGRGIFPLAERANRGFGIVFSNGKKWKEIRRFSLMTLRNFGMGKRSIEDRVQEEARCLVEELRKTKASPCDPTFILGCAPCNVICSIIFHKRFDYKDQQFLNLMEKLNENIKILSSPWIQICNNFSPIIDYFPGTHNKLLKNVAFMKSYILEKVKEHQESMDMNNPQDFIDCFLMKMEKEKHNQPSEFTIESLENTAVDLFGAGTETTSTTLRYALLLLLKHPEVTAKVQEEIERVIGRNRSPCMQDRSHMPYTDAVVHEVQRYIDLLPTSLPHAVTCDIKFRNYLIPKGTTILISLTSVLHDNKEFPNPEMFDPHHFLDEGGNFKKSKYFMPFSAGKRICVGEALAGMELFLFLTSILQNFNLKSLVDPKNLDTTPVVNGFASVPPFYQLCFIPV
T1 sequence (P08684 whole entry): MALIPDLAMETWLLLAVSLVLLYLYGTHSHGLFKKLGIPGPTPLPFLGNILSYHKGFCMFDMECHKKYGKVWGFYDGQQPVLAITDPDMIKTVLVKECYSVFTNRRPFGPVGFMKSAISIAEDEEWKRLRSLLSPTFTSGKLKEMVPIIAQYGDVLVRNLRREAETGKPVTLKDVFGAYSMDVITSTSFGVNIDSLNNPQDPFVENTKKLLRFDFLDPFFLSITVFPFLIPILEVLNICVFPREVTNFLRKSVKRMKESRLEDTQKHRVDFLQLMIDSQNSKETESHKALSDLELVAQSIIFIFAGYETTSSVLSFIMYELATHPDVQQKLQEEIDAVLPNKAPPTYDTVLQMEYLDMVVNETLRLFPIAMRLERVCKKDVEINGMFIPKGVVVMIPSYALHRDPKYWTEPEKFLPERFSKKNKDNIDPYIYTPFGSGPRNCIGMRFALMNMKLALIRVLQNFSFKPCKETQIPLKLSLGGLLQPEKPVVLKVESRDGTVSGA
T5 sequence (P33261 whole entry): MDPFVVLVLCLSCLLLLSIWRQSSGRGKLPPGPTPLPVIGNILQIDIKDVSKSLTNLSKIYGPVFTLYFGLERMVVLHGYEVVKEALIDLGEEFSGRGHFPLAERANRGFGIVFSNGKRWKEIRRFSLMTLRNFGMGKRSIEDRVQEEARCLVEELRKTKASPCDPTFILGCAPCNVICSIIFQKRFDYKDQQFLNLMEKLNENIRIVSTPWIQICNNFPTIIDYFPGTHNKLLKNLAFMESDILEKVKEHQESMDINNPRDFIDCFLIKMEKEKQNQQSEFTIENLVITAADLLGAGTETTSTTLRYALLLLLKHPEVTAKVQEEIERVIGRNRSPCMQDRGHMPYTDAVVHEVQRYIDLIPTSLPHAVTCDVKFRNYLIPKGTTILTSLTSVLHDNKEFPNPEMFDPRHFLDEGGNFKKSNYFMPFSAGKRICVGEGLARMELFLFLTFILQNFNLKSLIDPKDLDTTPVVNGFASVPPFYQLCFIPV
T6 sequence (P10635 whole entry): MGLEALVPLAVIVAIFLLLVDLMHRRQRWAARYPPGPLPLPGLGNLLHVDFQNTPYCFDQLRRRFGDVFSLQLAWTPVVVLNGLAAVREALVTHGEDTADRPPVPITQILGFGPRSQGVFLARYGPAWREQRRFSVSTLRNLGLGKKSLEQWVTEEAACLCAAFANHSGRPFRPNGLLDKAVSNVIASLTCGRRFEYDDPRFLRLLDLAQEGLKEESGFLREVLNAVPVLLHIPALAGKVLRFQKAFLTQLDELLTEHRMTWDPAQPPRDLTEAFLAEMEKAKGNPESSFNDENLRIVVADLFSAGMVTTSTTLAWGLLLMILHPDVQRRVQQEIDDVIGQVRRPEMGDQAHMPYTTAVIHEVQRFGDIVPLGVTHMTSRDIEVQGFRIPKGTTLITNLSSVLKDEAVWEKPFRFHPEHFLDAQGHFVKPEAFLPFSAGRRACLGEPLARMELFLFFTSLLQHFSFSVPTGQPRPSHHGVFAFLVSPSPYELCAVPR

CYP3A4-M IC50 fold shift [1, 8]: none | CYP3A4-T IC50 fold shift [1, 8]: none | IC50 ([1]; pre-incubation 0 min, read-out: CYP3A4-M IC50): > 30 µM | IC50 ([1]; pre-incubation 0 min, read-out: CYP3A4-T IC50): > 30 µM | IC50 ([1]; pre-incubation 30 min (NADPH), read-out: CYP3A4-M IC50): > 30 µM | IC50 ([1]; pre-incubation 30 min (NADPH), read-out: CYP3A4-T IC50): > 30 µM | IC50 ([1]; pre-incubation 30 min (NO NADPH), read-out: CYP3A4-M IC50): > 30 µM | IC50 ([1]; pre-incubation 30 min (NO NADPH), read-out: CYP3A4-T IC50): > 30 µM | CYP2C9 IC50 fold shift [2, 8]: none | IC50 ([2]; pre-incubation 0 min): > 30 µM | IC50 ([2]; pre-incubation 30 min (NADPH)): > 30 µM | IC50 [2, 9]: > 30 µM | IC50 ([3]; 0 min pre-incubation, pooled human microsomes, read-out: IC50 CYP2B6 (reversible inhibition)): 26.2 µM | CYP2B6 IC50 fold shift [3, 8]: none | IC50 ([3]; pre-incubation 30 min (NADPH), read-out: CYP2B6 IC50): > 30 µM | IC50 ([3]; pre-incubation 30 min (NO NADPH), read-out: CYP2B6 IC50): 24.4 µM | IC50 ([4]; 0 min pre-incubation, pooled human microsomes, read-out: IC50 CYP1A2 (reversible inhibition)): 10 µM | CYP1A2 IC50 fold shift [4, 8]: 0.8 | IC50 ([4]; pre-incubation 30 min (NADPH), read-out: CYP1A2 IC50): 11.8 µM | IC50 ([4]; pre-incubation 30 min (NO NADPH), read-out: CYP1A2 IC50): 12 µM | CYP2C19 IC50 fold shift [5, 8]: none | IC50 ([5]; pre-incubation 0 min): > 30 µM | IC50 ([5]; pre-incubation 30 min (NADPH)): > 30 µM | IC50 [5, 9]: > 30 µM | IC50 ([6]; 0 min pre-incubation, pooled human microsomes, read-out: IC50 CYP2D6 (reversible inhibition)): 13.7 µM | CYP2D6 IC50 fold shift [6, 8]: 1.1 | IC50 ([6]; pre-incubation 30 min (NADPH), read-out: CYP2D6 IC50): 12.3 µM | IC50 ([6]; pre-incubation 30 min (NO NADPH), read-out: CYP2D6 IC50): 9.1 µM
SMILES: CO[C@H]1CC[C@H](NC(=O)c2nccc(-c3cncn3C)n2)CC1 [Compound 148, N-((1r,4r)-4-methoxycyclohexyl)-4-(1-methyl-1H-imidazol-5-yl)pyrimidine-2-carboxamide]
nicotinamide levels in blood ([7]; blood): decreased | nicotinamide levels in brain ([7]; brain): decreased | nicotinamide levels in heart ([7]; heart): decreased | nicotinamide levels in liver ([7]; liver): decreased
